Tested on: adjuvant induced arthritis
Assay: Adjuvant induced arthritis in Lewis rats
Assay type: in vivo, rat
Conditions: D8 100 μg 3x/week, methotrexate 0.25 mg/kg once weekly, from day 3, compared to PBS
Protocol: Adjuvant arthritis was induced in Lewis rats (six-week-old male Lewis rats obtained from Harlan, Israel) by injection of […]. […] was prepared by suspending heat-killed Mycobacterium Tuberculosis (Difco, Detroit, Mich.) in mineral oil at 10 mg/ml. Rats were injected intradermally with 100 μl adjuvant at the base of the tail. Arthritis developed by day 10 post injection.
Rats (8 per group) were treated by intraperitoneal (IP) injection with 3 monoclonal antibodies against eotaxin-2, (G7, G8, D8) 3×/week. Controls were treated with total mouse (non specific) IgG or PBS. Injections were started on the third day after adjuvant administration and were performed three times a week until the rats were sacrificed. […]
Arthritis severity was evaluated by measuring body weight, paw swelling, arthritic score and whole animal mobility. […]
Body weight in grams was measured every other day as an indicator of systemic inflammation.
Evaluation of Paw swelling. Ankle and wrist diameter in mm (to one place after the decimal point) were recorded three times a week using a caliper. […]
Finger and toe swelling was recorded according to their partial contribution: Ankles (feet): each toe scored 0.2; Wrist: each finger scored 0.25 Sum of all joints was calculated.
Whole animal Mobility was scored between 0-4, according to the following definitions: […]

## CN(Cc1cnc2nc(N)nc(N)c2n1)c1ccc(C(=O)N[C@@H](CCC(=O)O)C(=O)O)cc1 [methotrexate]
  protection against development of arthritis (arthritic score), prevention mode: significant, comparable protection
Listed as MTX
  protection against development of arthritis (arthritic score), prevention mode: statistically significant effect (p<0.05)

From US9067989B2, “Eotaxin-2 (CCL24) inhibitors in inflammatory, autoimmune, and cardiovascular disorders” (THE MEDICAL RESEARCH, INFRASTRUCTURE, AND HEALTH SERVICES …, priority 2009, dated 2015)
